Ten molecules from patent US20230322846A9, “NEUROACTIVE STEROIDS AND THEIR METHODS OF USE” (SAGE THERAPEUTICS, INC., priority 2018, published 2023) can be followed below.

This experiment concerns the target [35S]-TBPS binding, rat brain cortical membranes. In words: Steroid inhibition of [35S]-TBPS binding. The following applies: 3 nM [35S]-TBPS, in the presence of 5 mM GABA. The method in brief: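 Rat cortical P2 membranes incubated 90 min at room temperature with 3 nM [35S]-TBPS, […] and test compound (0.5% DMSO final) in NaCl/Na–K phosphate pH 7.4; nonspecific binding with […]. Filter-bound radioactivity counted; IC50 and Imax from nonlinear fits, mean ± SEM.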

The IC50 is the concentration that inhibits the measured activity by half. On to `CCC[C@@]1(O)CC[C@@]2(COC)[C@H](CC[C@H]3[C@@H]4CC[C@H]([C@H](C)Cn5nnnc5C)[C@@]4(C)CC[C@@H]32)C1` [Example 322, (3R,5R,8S,9S,10R,13S,14S,17R)-10-(methoxymethyl)-13-methyl-17-((S)-1-(5-methyl-1H-tetrazol-1-yl)propan-2-yl)-3-propylhexadecahydro-1H-cyclopenta[a]phenanthren-3-ol], for which the half-maximal inhibitory concentration (IC50) is under 100 nM. For `COc1ccc(C(=O)N[C@@H](C)[C@H]2CC[C@H]3[C@@H]4CC[C@@H]5C[C@](C)(O)CC[C@@H]5[C@H]4CC[C@]23C)cc1` [Example 107] the value was 1000 to 10000 nM; for `COC[C@@]1(O)CC[C@H]2[C@H](CC[C@@H]3[C@@H]2CC[C@]2(C)[C@@H]([C@@H](C)Cc4nc(C)ccc4Cl)CC[C@@H]32)C1` [Example 424], under 100 nM. Regarding `COC[C@@]1(O)CC[C@H]2[C@H](CC[C@@H]3[C@@H]2CC[C@]2(C)[C@@H]([C@H](C)NC(=O)c4ccc(F)cc4)CC[C@@H]32)C1` [Example 114], the IC50 is 1000 to 10000 nM.

As for `COC[C@@]1(O)CC[C@@]2(C)[C@H](CC[C@@H]3[C@@H]2[C@@H](O)C[C@]2(C)[C@@H]([C@H](C)Cn4cc(C#N)cn4)CC[C@@H]32)C1` [Example 328, 1-((S)-2-((3R,5R,8S,9S,10S,11S,13S,14S,17R)-3,11-dihydroxy-3-(methoxymethyl)-10,13-dimethylhexadecahydro-1H-cyclopenta[a]phenanthren-17-yl)propyl)-1H-pyrazole-4-carbonitrile], the IC50 lay within 100 to 1000 nM. With `CCOC[C@@]1(O)CC[C@H]2[C@H](CC[C@@H]3[C@@H]2CC[C@]2(C)[C@@H]([C@H](C)Cn4nccn4)CC[C@@H]32)C1` [Example 265, (3R,5R,8R,9R,10S,13S,14S,17R)-17-((S)-1-(2H-1,2,3-triazol-2-yl)propan-2-yl)-3-(ethoxymethyl)-13-methylhexadecahydro-1H-cyclopenta[a]phenanthren-3-ol], the IC50 was in the range of 100 to 1000 nM. Regarding `COC[C@@]1(O)CC[C@H]2[C@H](CC[C@@H]3[C@@H]2CC[C@]2(C)[C@@H]([C@H](C)Cn4ccc(C#N)n4)CC[C@@H]32)C1` [Example 35, 1-((S)-2-((3R,5R,8R,9R,10S,13S,14S,17R)-3-hydroxy-3-(methoxymethyl)-13-methylhexadecahydro-1H-cyclopenta[a]phenanthren-17-yl)propyl)-1H-pyrazole-3-carbonitrile], the IC50 was under 100 nM. As to `C[C@H](Cn1cc(C#N)cn1)[C@H]1CC[C@H]2[C@@H]3CC[C@@H]4C[C@](C)(O)CC[C@]4(C)[C@H]3CC[C@]12C` [Example 306, 1-((S)-2-((3R,5R,8R,9S,10S,13S,14S,17R)-3-hydroxy-3,10,13-trimethylhexadecahydro-1H-cyclopenta[a]phenanthren-17-yl)propyl)-1H-pyrazole-4-carbonitrile], the IC50 is under 100 nM. As for `CCOC[C@@]1(O)CC[C@H]2[C@H](CC[C@@H]3[C@@H]2CC[C@]2(C)[C@@H]([C@@H](CC)Cn4ccc(C#N)n4)CC[C@@H]32)C1` [Example 498, 1-((R)-2-((3R,5R,8R,9R,10S,13S,14S,17R)-3-(ethoxymethyl)-3-hydroxy-13-methylhexadecahydro-1H-cyclopenta[a]phenanthren-17-yl)butyl)-1H-pyrazole-3-carbonitrile], the IC50 is 100 to 1000 nM. Take `CCC[C@@]1(O)CC[C@H]2[C@H](CC[C@@H]3[C@@H]2CC[C@]2(C)[C@@H]([C@@H](C)Cn4cc(C#N)cn4)[C@H](O)C[C@@H]32)C1` [Example 362, 1-((R)-2-((3R,5R,8R,9R,10S,13S,14S,16R,17R)-3,16-dihydroxy-13-methyl-3-propylhexadecahydro-1H-cyclopenta[a]phenanthren-17-yl)propyl)-1H-pyrazole-4-carbonitrile]: the concentration for half-maximal inhibition (IC50) was in the range of 1000 to 10000 nM.
